Results from publication PMC6927504, “Screening of House Dust from Chinese Homes for Chemicals with Liver X Receptors Binding Activities and Characterization of Atherosclerotic Activity Using an in Vitro Macrophage Cell Line and ApoE^−/− Mice” (Environmental Health Perspectives, 2019).

Experiments:
RAW264.7 macrophages = test: CellTiter-Glo Luminescent Cell Viability Assay; type: cell-based; conditions: 24-h exposure at 1–20,000 nM
Experimental: RAW264.7 cells were obtained from the National Infrastructure of Cell Line Resource of Beijing, China, and the cells used for the experiment were cultured for at least three passages. Dulbecco’s Modified Eagle’s Medium (DMEM)-F12 medium containing 10% fetal bovine serum (FBS) was employed to culture the RAW264.7 cells. RAW264.7 cells were incubated at 37°C with 5% carbon dioxide. The RAW264.7 cells were plated at 2.5×10^5 cells/well (6-well plates), 6.0×10^4 cells/well (24-well plates), and 10^4 cells/well (96-well plates). The RAW264.7 cells were plated and grown overnight; then the medium was removed and fresh DMEM-F12 contained with 0.1% DMSO (control; n=3 ) or TPHP at the concentrations of 1–20,000 nM ( n=3 per group) was added. […] Then the cells were used for the quantitative reverse transcription (qRT)-PCR, cellular cholesterol efflux assay, and foam cell formation experiment.
Cell viability was assessed using the CellTiter-Glo® Luminescent Cell Viability Assay based on the manufacturer’s instructions ( n=3 per group). Luminescence was assessed using an LB 941 TriStar multimode microplate reader (Berthold Technologies).

ABCG1 = test: qRT-PCR of ABCG1 in peritoneal macrophages isolated from exposed C57BL/6 mice; type: in vivo, mouse; conditions: 200 mg/kg BW oral gavage for 7 d, control set to 1, p<0.01
Experimental: Total RNA was isolated from RAW264.7 cells and mouse peritoneal macrophages using TRIzol reagent according to the manufacturer’s instructions. Then a Nanovue Plus™ spectrophotometer (GE Healthcare Life Science) was used to analyze the concentration, quality, and purity of the RNA. Total RNA ( 1μg ) was mixed with oligo deoxythymine (dT) ( 1μL ) at 70°C for 5 min and then combined with a mixture containing Moloney murine leukemia virus (MMLV) reverse transcriptase ( 1μL ), deoxy-ribonucleoside triphosphate (dNTP) ( 1.25μL ), Recombinant RNasin® Ribonuclease Inhibitor (Promega) ( 0.65μL ), and MMLV buffer ( 5μL ) at 42°C for 60 min. The SYBR® Green PCR Kit (TOYOBO) was used for RT-PCR analysis. Real-time fluorescence detection was performed using the StepOnePlus™ sequence detection system (Applied Biosystems). […]
All experiments related to animals were approved by the institutional animal care and use committee of Peking University and followed the guidelines for animal experiments of the university as well as for experimental animals in China. […] Body weight (BW) was measured every week during the dosing period. […] Considering that this study assessed the effects of short-term exposure to TPHP, whereas humans are exposed to TPHP over a lifelong period, the present study used exposure doses that were higher than that of human exposure from house dust. […]

SMILES: O=P(Oc1ccccc1)(Oc1ccccc1)Oc1ccccc1 [TPHP, triphenyl phosphate]
- Cell viability (RAW264.7 macrophages): no significant loss of cell viability
- ABCG1 gene expression in peritoneal macrophages relative to control (ABCG1): 0.30±0.08 fold
